Three molecules from patent US6890944B2, “Organic acid salt of amlodipine” (priority 2002, dated 2005) can be followed below.

Format in all cases: physicochemical
Series [1] in a line: Chemical stability in solid state, accelerated test at 60° C. (HPLC content).
Series [2] is described as follows: Chemical stability in aqueous state, stored at 25° C. for 4 weeks in complete darkness (HPLC). The note with it: in distilled water. The procedure:
The resulting aqueous solutions were stored at 25° C. for 4 weeks in complete darkness, after which a measurement was made of the contents of the salts with resort to HPLC under the same conditions as in the solid state.

Series [3] can be described thus: Test for hygroscopicity: water content (K.F. water %) at 25° C. at different humidity levels. Conditions: for water content (K.F. water %): 25° C.
Series [4] is described as follows: Test for solubility in various solvents. The note with it: based on weight of amlodipine, note: dissolved at 37° C.
Series [5] can be described thus: Test for light stability: aqueous solutions stored at 25° C. for 4 weeks exposed to sunlight (HPLC). Conditions: 25° C. sunlight; for Content (HPLC): aqueous solution, stored for 4 weeks; for colour change: light stability test, 4 weeks. The procedure: The resulting aqueous solutions were stored at 25° C. for 4 weeks while being exposed to sunlight. A measurement was made of the contents of the salts with resort to HPLC under the same conditions as in the chemical stability test.

Read-outs that look alike come from different tables or passages of the source.

What is called solubility is the dissolved amount per volume that the medium holds. On to `CCOC(=O)C1=C(COCCN)NC(C)=C(C(=O)OC)C1c1ccccc1Cl.O=C(O)Cc1ccc(O)cc1` (centres unmarked) [amlodipine p-hydroxyphenylacetate], for which the HPLC content in series [1] (1 week) stood at 99.6%; in series [1] (2 weeks), 99.5%; in series [1] (4 weeks) it was 99.4%; in series [1] (initial), 99.7%. In series [2], the “decomposition products / content change (HPLC)” value is reported as “neither decomposition products nor content change is found”. The “water content (K.F. water %)” value in series [3] (25% RH, 1 week, listed as p-hydroxyphenylacetate) worked out at 0.08%; in series [3] (60% RH, 1 week, listed as p-hydroxyphenylacetate) it was 0.1%; in series [3] (75% RH, 1 week, listed as p-hydroxyphenylacetate), 0.14%; in series [3] (90% RH, 1 week), 0.17%; in series [3] (Initial, listed as p-hydroxyphenylacetate) it was 0.15%. In series [3] (relative humidity 95%), this molecule came in with a hygroscopicity of at most 0.5%. For the same molecule, the solubility in series [4] (Dist. Water, 25° C. (text), listed as p-Hydroxyphenylacetate) stood at 3000 µg/mL; in series [4] (buffer pH 6, ionic strength 0.2, 25 °C, pH 6, aqueous buffer, pH 6, ionic strength 0.2 buffer, 25° C., read-out: solubility), 2200 µg/mL; in series [4] (buffer pH 7, ionic strength 0.2, 25 °C, pH 7, aqueous buffer, pH 7, ionic strength 0.2 buffer, 25° C., read-out: solubility), 1100 µg/mL; in series [4] (pH 2, ionic strength 0.2 buffer, 25° C. (text), listed as p-Hydroxyphenylacetate) it was 8900 µg/mL; in series [4] (pH 4, ionic strength 0.2 buffer, 25° C. (text), listed as p-Hydroxyphenylacetate) it was 8800 µg/mL; in series [4] (pH 7.4, ionic strength 0.2 buffer, 25° C. (text), listed as p-Hydroxyphenylacetate), 4000 µg/mL. This molecule gave a solubility in series [4] (pH 8, ionic strength 0.2 buffer, 25° C. (text), listed as p-Hydroxyphenylacetate) of 3000 µg/mL. Moreover, the “Content (HPLC)” value in series [5] is listed as 98.9%. Also, in series [5], the colour change result was “kept its original white color”.

Consider `CCOC(=O)C1=C(COCCN)NC(C)=C(C(=O)OC)C1c1ccccc1Cl` (centres unmarked) [Besylate, amlodipine besylate, reference compound], for which the HPLC content in series [1] (1 week) was 99.6%; in series [1] (2 weeks) it was 99.4%; in series [1] (4 weeks), 99.2%; in series [1] (initial) it was 99.6%. Besides, the “water content (K.F. water %)” value in series [3] (25% RH, 1 week) came out at 0.10%; in series [3] (60% RH, 1 week), 0.09%; in series [3] (75% RH, 1 week), 0.15%; in series [3] (Initial), 0.14%. The solubility in series [4] (Dist. Water, 25° C. (text)) is 1290 µg/mL; in series [4] (pH 2, ionic strength 0.2 buffer, 25° C. (text)) it was 1290 µg/mL; in series [4] (pH 4, ionic strength 0.2 buffer, 25° C. (text)), 1320 µg/mL; in series [4] (pH 6, ionic strength 0.2 buffer, 25° C.), 1280 µg/mL; in series [4] (pH 7, ionic strength 0.2 buffer, 25° C.), 640 µg/mL; in series [4] (pH 7.4, ionic strength 0.2 buffer, 25° C. (text)), 1350 µg/mL. Further, in series [4] (pH 8, ionic strength 0.2 buffer, 25° C. (text)), the solubility is 1250 µg/mL. The “Content (HPLC)” value in series [5] amounted to 82.5%. Also, in series [5] (listed as amlodipine besylate), the colour change result was “turned yellow from white”.

Turning to `CCOC(=O)C1=C(COCCN)NC(C)=C(C(=O)OC)C1c1ccccc1Cl.Cc1ccc(S(=O)(=O)O)cc1` (centres unmarked) [Tosylate, Amlodipine Para-toluenesulfonate], the “Content (HPLC)” value in series [5] was found to be 72.0%.
